According to ChEMBL document CHEMBL1134218, “Sialidase inhibitors related to zanamivir. Further SAR studies of 4-amino-4H-pyran-2-carboxylic acid-6-propylamides” (Bioorg Med Chem Lett, 2001):
≈ marks a conversion by molar mass, not a printed value.

Experiments:
Influenza B virus = experiment: Concentration required for reduction of plaque against influenza B; type: functional, organism-based, unidentified influenza virus
Influenza A virus = experiment: Concentration required for reduction of plaque against influenza A; type: functional, organism-based, unidentified influenza virus
[1] = Influenza B virus, read-out: IC50
[2] = Influenza A virus, read-out: IC50

Question: How did the IC50 (Influenza B virus; [1]) turn out when `CC(=O)N[C@H]1[C@H]([C@H](O)[C@H](O)CO)OC(C(=O)O)=C[C@@H]1NC(=N)N` [ZANAMIVIR] was run?
Answer: 2 ng/mL (≈ 6.02 nM)

Question: And the IC50 (Influenza A virus; [2])?
Answer: 5 ng/mL (≈ 15 nM)

Question: How did the IC50 (Influenza B virus; [1]) turn out when `CCCN(CCC)C(=O)[C@@H]1OC(C(=O)O)=C[C@H](N)[C@H]1NC(C)=O` was run?
Answer: 700 ng/mL (≈ 2140 nM)

Question: What about the IC50 (Influenza A virus; [2]) of the same compound?
Answer: 2 ng/mL (≈ 6.11 nM)

Question: How did the IC50 (Influenza B virus; [1]) turn out when `CCCN(CCc1ccccc1)C(=O)[C@@H]1OC(C(=O)O)=C[C@H](O)[C@H]1NC(C)=O` was run?
Answer: > 100000 ng/mL

Question: What about the IC50 (Influenza A virus; [2]) of the same compound?
Answer: 5 ng/mL (≈ 12.8 nM)

Question: Which results are given for `CCCN(CCC)C(=O)[C@@H]1OC(C(=O)O)=C[C@H](N)[C@H]1NC(=O)C(F)(F)F`?
Answer: IC50 (Influenza B virus; [1]): 300 ng/mL (≈ 787 nM); IC50 (Influenza A virus; [2]): 0.01 ng/mL (≈ 0.0262 nM)

Question: With `CCCN(CCc1ccccc1)C(=O)[C@@H]1OC(C(=O)O)=C[C@H](N)[C@H]1NC(=O)C(F)(F)F` as the compound, how does the IC50 (Influenza B virus; [1]) read?
Answer: 56 ng/mL (≈ 126 nM)

Question: And the IC50 (Influenza A virus; [2])?
Answer: 4 ng/mL (≈ 9.02 nM)

Question: With `CCCN(CCC)C(=O)[C@@H]1OC(C(=O)O)=C[C@H](N)[C@H]1NC(=O)CC` as the compound, how does the IC50 (Influenza B virus; [1]) read?
Answer: 3000 ng/mL (≈ 8790 nM)

Question: And the IC50 (Influenza A virus; [2])?
Answer: 0.2 ng/mL (≈ 0.586 nM)

Question: With `CCCN(CCc1ccccc1)C(=O)[C@@H]1OC(C(=O)O)=C[C@H](N)[C@H]1NC(C)=O` as the compound, how does the IC50 (Influenza B virus) read?
Answer: 300 ng/mL (≈ 770 nM)

Question: What about the IC50 (Influenza B virus; [1]) of the same compound?
Answer: 280 ng/mL (≈ 719 nM)

Question: What about the IC50 (Influenza A virus) of the same compound?
Answer: 30 ng/mL (≈ 77 nM)

Question: What about the IC50 (Influenza A virus; [2]) of the same compound?
Answer: 30 ng/mL (≈ 77 nM)
